# Reference: patent publication US7705038B2, “Control of parasites in animals by the use of parasiticidal 2-phenyl-3-(1H-pyrrol-2-yl)acrylonitrile derivatives” (Intervet, Inc., priority 2004, dated 2010)
# Assays:
# Haemonchus contortus = assay: Activity against Haemonchus contortus (LD99); conditions: dose required to kill 99% of the sample of Haemonchus contortus
# Excerpt: (§1) Exemplified compounds of Formula 1 are listed by Tables 1a and 1b, above. The activity of these compounds against Haemonchus contortus and cat fleas (Ctenocephalides felis) is summarized by Table 7, below.
# The LD99 value is the dose, expressed as μg/ml, that was required to kill 99% of the sample of Haemonchus contortus.
# [1] = test system: cat fleas (Ctenocephalides felis); assay: Contact activity against cat fleas (LC50, % kill); conditions: for % Kill: percent of a sample of cat fleas killed at a concentration of 1.26 μg/cm^2; for LC50: concentration required to kill 50% of the sample of cat fleas on contact; for pest or weed control at 1.26 µg/cm2, 1.26 µg/cm2: Ctenocephalides felis, read-out: % Kill
# Excerpt: as §1
Compound,LD99 (Haemonchus contortus),% Kill [1],LC50 [1],EC99 (Haemonchus contortus),"pest or weed control at 1.26 µg/cm2, 1.26 µg/cm2 [1]"
CC(C)c1ccc(/C(C#N)=C/c2ccc[nH]2)cc1 [Compound 87],— (the symbol ‘—’ indicates tested but inactive up to 15 μg/ml),100%,,,
N#C/C(=C\c1ccc[nH]1)c1ccc(F)c(Cl)c1 [Compound 81],1.25 µg/mL,5%,,,
N#C/C(=C\c1ccc[nH]1)c1ccccc1F [Compound 25],2.5 µg/mL,92%,0.594 μg/cm^2,,
N#C/C(=C\c1ccc[nH]1)c1ccc(F)c(Br)c1 [Compound 73],0.469 µg/mL,7%,,,
N#C/C(=C\c1ccc[nH]1)c1cccc(Oc2ccccc2)c1 [Compound 71],3.25 µg/mL,10%,,,
"Cc1ccccc1/C(C#N)=C/c1ccc[nH]1 [Compound 16, (Z)-2-(2-Methyl-phenyl)-3-(1H-pyrrol-2-yl)acrylonitrile]",,,0.076 μg/cm^2,3.75 µg/mL,100%
"Cn1cccc1/C=C(\C#N)c1ccc(Cl)cc1 [Compound 6, (Z)-2-(4-Chloro-phenyl)-3-(1-methyl-1H-pyrrol-2-yl)acrylonitrile]",,,,1.88 µg/mL,13%
N#C/C(=C\c1ccc[nH]1)c1ccccc1Br [Compound 38],3.25 µg/mL,30%,,,
N#C/C(=C\c1ccc[nH]1)c1ccccc1C#N [Compound 37],— (the symbol ‘—’ indicates tested but inactive up to 15 μg/ml),11%,,,
N#C/C(=C\c1cc(Cl)c(Cl)[nH]1)c1ccc(Cl)cc1 [Compound 3],3 µg/mL,15%,,,
N#C/C(=C\c1ccc[nH]1)c1ccc(Cl)cc1F [Compound 48],2.5 µg/mL,5%,,,
N#C/C(=C\c1ccc[nH]1)c1ccc(C(F)(F)F)cc1 [Compound 4],0.625 µg/mL,20%,,,
Cn1cccc1/C=C(\C#N)c1cccc(Cl)c1 [Compound 5],3 µg/mL,6%,,,
"CCOCn1cccc1/C=C(\C#N)c1ccc(Cl)cc1 [Compound 7, (Z)-2-(4-Chloro-phenyl)-3-(1-ethoxymethyl-1H-pyrrol-2-yl)acrylonitrile]",,,,5.5 µg/mL,6%
N#C/C(=C\c1ccc[nH]1)c1c(F)cccc1F [Compound 70],7.5 µg/mL,17%,,,
N#C/C(=C\c1ccc[nH]1)c1cc(C(F)(F)F)cc(C(F)(F)F)c1 [Compound 68],— (the symbol ‘—’ indicates tested but inactive up to 15 μg/ml),27%,,,
N#C/C(=C\c1ccc[nH]1)c1cccc(F)c1 [Compound 10],1.625 µg/mL,78%,0.78 μg/cm^2,,
N#C/C(=C\c1ccc[nH]1)c1ccccc1 [Compound 35],— (the symbol ‘—’ indicates tested but inactive up to 15 μg/ml),21%,,,
N#C/C(=C\c1cccn1Cc1ccccc1)c1ccc(Cl)cc1 [Compound 77],14 µg/mL,3%,,,
COc1ccc(/C(C#N)=C/c2ccc[nH]2)cc1 [Compound 14],1.5 µg/mL,31%,,,
